The data set has as its system lipid peroxidation in rat liver microsomes. In words: Anti-lipid peroxidation in rat liver microsomes (NADPH-induced, MDA-TBA absorbance at 535 nm). The class given is biochemical. As to the method:
In the present, the rat microsomes is used to provide lipid source. The product of lipid peroxidation induced by NADPH with heat treatment (deconstructing microsome enzyme) is referred as MDA (malondialdehyde). The MDA is added with TBA (thiobarbituric acid) to form MDA-TBA compound with pink fluorescence. The MDA-TBA compound has absorption spectrum at 535 nm (or 532 nm) wavelength. The content of MDA can be manifested by the absorption degree of light at those wavelengths. Therefore, the degree of lipid peroxidation can also be known. If the content of MDA is decreased after addition of water soluble CM chitosan, the reduction of MDA can be attributed to the water soluble CM chitosan. It means that the water soluble CM chitosan has the ability of anti-lipid peroxidation. In the present invention, the anti-lipid peroxidation ability of the water soluble CM chitosan is compared with that of the Trolex (water soluble vitamin E).

SMILES strings stand for the structures. In brackets after ≈: the same amount, converted by molar mass.

As to `Cc1c(C)c2c(c(C)c1O)CCC(C)(C(=O)O)O2` (stereo not drawn) [Trolex], the “effect on lipid peroxidation in rat liver microsomes” value (addition of the substance to rat liver microsomes) is listed as “can suppress the lipid peroxidation”. Moreover, where the note is “as the added amount of the substance is increased”, the “MDA, the product of lipid peroxidation” value is “monotonically decreased”. Where the note is “rat liver microsomes, average over at least three data”, the “IC50 (the concentration required to suppress 50% lipid peroxidation)” value worked out at 4.96 µg/mL (≈ 19.8 µM).
